This note sets out measurements from paper PMC11187126, “Structure and dynamics of the pyroglutamylated RF-amide peptide QRFP receptor GPR103” (Nature Communications, 2024).

The term EC50 denotes the midpoint of the concentration-response curve. A higher EC50 goes with lower potency in that assay.

Read-outs that look alike come from different tables or passages of the source. No end group written: not given here.

For the assay, the target named is T1, GPR103 E297^6.59A (Homo sapiens, UniProt Q96P65, E297A).
T1 construct: we used human full-length QRFPR-encoding plasmids; expressed in transfected cells; host or cells: HEK293 cells (HEK293A in the flow cytometry section), pCAGGS vector
T1 sequence (Q96P65 1-431 E297A): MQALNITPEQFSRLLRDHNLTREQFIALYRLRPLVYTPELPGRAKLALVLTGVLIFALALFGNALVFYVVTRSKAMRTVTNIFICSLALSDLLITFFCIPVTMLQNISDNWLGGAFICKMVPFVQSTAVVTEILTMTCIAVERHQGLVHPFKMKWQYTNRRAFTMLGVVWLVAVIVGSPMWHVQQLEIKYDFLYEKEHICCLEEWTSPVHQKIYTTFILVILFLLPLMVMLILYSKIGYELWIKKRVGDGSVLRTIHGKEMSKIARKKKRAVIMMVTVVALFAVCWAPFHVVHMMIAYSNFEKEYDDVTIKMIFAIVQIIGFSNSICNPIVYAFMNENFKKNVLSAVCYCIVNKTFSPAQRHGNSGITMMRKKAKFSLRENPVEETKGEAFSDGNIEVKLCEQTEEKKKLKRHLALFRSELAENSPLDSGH
As to the kind of experiment: TGFα shedding assay; Exp. level >WT (1:1). The class given is cell-based. The method, then:
For the TGFα shedding assay and the flow cytometry analysis, we used human full-length QRFPR-encoding plasmids. Specifically, GPR103 was N-terminally modified with an HA signal sequence followed by a FLAG epitope and then a flexible linker ([…]; the FLAG epitope is underlined) and inserted into the pCAGGS vector. Plasmid encoding GPR103 mutants were generated using Quickchange Site-Directed Mutagensis kit (Agilent).
The TGFα shedding assay was performed as described previously with minor modifications. Plasmid transfection was performed in a 6-well plate with a mixture of 500 ng (per well in a 6-well plate) AP-TGFα-encoding plasmid and 200 ng GPR103-encoding plasmid. After 1-day culture, the transfected cells were harvested by trypsinization, pelleted by centrifugation at 190 × g for 5 min, and washed once with 5 mM HEPES (pH 7.4)-containing Hank’s Balanced Salt Solution (HBSS). After centrifugation, the cells were resuspended in 8 mL of the HEPES-containing HBSS. The cell suspension was seeded in a 96-well culture plate (cell plate) at a volume of 90 μL (per well hereafter) and incubated in a 37 °C incubator with 5% CO2 for 30 min. […] After spinning the cell plates at 190 × g for 2 min, 80 μL of conditioned media was transferred to an empty 96-well plate (conditioned media (CM) plate). Then, 80 μL of AP reaction solution (10 mM p-nitrophenylphosphate (p-NPP), 120 mM Tris-HCl (pH 9.5), 40 mM NaCl, and 10 mM MgCl2) was dispensed into the cell plates and the CM plates. Absorbance at 405 nm of the plates was measured using a microplate reader (SpectraMax 340 PC384, Molecular Devices) before and after 1-h incubation at room temperature. Ligand-induced AP-TGFα release was calculated by subtracting spontaneous AP-TGFα release signal from ligand-induced AP-TGFα release signal. The AP-TGFα release signals were fitted to a four-parameter sigmoidal concentration–response curve, using the Prism 10 software (GraphPad Prism). For each replicate experiment, the pEC50 parameter (negative logarithmic values of EC50 values) of the individual GPR103 mutants were normalized to that of the wild-type GPR103 performed in parallel, and resulting ∆pEC50 values were used to denote ligand response activity of the mutants. […]
Exp. le vel: WT (1:5 0)Exp. le vel: WT (1:5 0)Exp. le vel: WT (1:5 0)Exp. le vel: WT (1:2 0)Exp. le vel: WT (1:2 0)Exp. le vel: WT (1:1 0) […]
L1 4N - t e r mA F2 5N - t e r mA I 2 6N - t e r mA Y 2 9N - t e r mA C 9 82 .5 7A T10 22 .6 1A Exp . l eve l: WT (1 :5)Exp . l evel : >WT (1 :1)Exp. le vel: WT (1:2 0)Exp. le vel: WT (1:2 0)Exp. le vel: WT (1:5 0)Exp . l eve l: WT (1 :1) […]
Exp. le vel: WT (1:1 0)Exp. le vel: WT (1:2 0) C 1 1 83 .2 5AExp. le vel: WT (1:5 0)Exp. le vel: WT (1:5 0)Exp. le vel: WT (1:2 0)Exp . l eve l: WT (1 :5) […]
Exp. le vel: WT (1:5 0)Exp. le vel: WT (1:1 0)Exp. le vel: WT (1:5 0) E203ECL2AExp . l evel : >WT (1 :1)Exp. le vel: WT (1:5 0)Exp. le vel: WT (1:5 0) […]
Exp . l eve l: WT (1 :1) F28Exp. le vel: WT (1:5 0) C 2 8 56 .4 7AExp. le vel: WT (1:2 0) WExp. le vel: WT (1:2 0) F28Exp. le vel: WT (1:5 0)Exp . l evel : >WT (1 :1) […]
Exp. le vel: WT (1:5 0)Exp. le vel: WT (1:5 0) C 3 2 77 .4 8AExp . l eve l: WT (1 :5)Exp . l evel : >WT (1 :1)Exp . l evel : >WT (1 :1) […]
Suppl eme nt ary Figure 1 | Mutational analysis of GPR103. […]
mutants. Data are presented as mean values ± SEM, normally n=3-5; dots), each performed in triplicate. b-d Cell-surface expression (b) and QRFP26-in-duced activation of GPR103 (c, d) were analyzed by the flow cytometry and the TGFα shedding assay, respectively. From the concentration–response curves (a), Emax (c) and ΔpEC50 (d) values relative to the wild type were calculated. Colors in the mutant bars indicate an expression level matching to that of titrated wild type. Statistical analyses were performed using the ordinary one-way ANOVA followed by Dunnett tests with the expression-matched […]

As to TSGPLGNLAEELNGYSRKKGGFSFRF-NH2 [QRFP26], the Emax reads like this: (Exp. #1) 106.77 % WT; (Exp. #2) 105.91 % WT; (Exp. #3) 110.91 % WT; (mean, read-out: Emax) 108%; (n = 3, read-out: Emax) 112 ± 1.3%. The EC50 (n = 3) is 0.0282 µM.
